One test is described as follows: In vitro DPPH test. To be noted: compounds at 1 mg/mL, 30 min, 517 nm. As to the method:
The assay performed is adapted from Wang et al.. Briefly, 0.750 mL of 1 mg/mL solutions of the tested compounds was treated with 1.5 mL of DPPH solution in MeOH. The absorbance of samples, stored for 30 min at room temperature in the dark, was read on the spectrophotometer at 517 nm. The values obtained were converted into a radical inhibition percentage (%) by Equation (1). DPPH radical scavenging capacity (%) = [1 − A1/A0] × 100%(1) where A0 and A1 were, respectively, the absorbance without and with the sample. Subsequently, the compound with the best profile was tested in order to determine the IC50 (µg/mL). A linear regression plot is performed to calculate the actual sample concentration required to eliminate 50% of the DPPH free radicals.
The antioxidant activity of a molecule is very important and, if present, it can be synergistic with the SPF described above in reducing the damage that is ROS-induced by UV rays. For this reason, the synthesized compounds were assayed in vitro to assess their antioxidant profiles by means of the DPPH and FRAP assays (Table 2). Regarding the ability to scavenge the stable radical 2,2-diphenyl-1-picrylhydrazyl (DPPH), it was decided to investigate first the compounds synthesized at the same concentration (1 mg/mL) and evaluate the percentage of inhibition of the radical DPPH.

Test [1] can be described thus: Ferric Reducing Antioxidant Power assay (FRAP). To be noted: 593 nm. As to the method: The FRAP assay is a widely used method based on a colorimetric reaction linked to a redox and on the use of antioxidants as reducing agents.
The test evaluates the capacity of a sample to reduce ferric to ferrous ions in the presence of TPTZ (2,4,6-tripyridyl-s-triazine). The reaction mixture consists of 0.1 M acetate buffer pH 3.6, 10 mmol/L TPTZ in 40 mmol/HCl, and 20 mmol/L ferric chloride in the ratio 10/1/1 (v:v:v) as described by Benzie et al.. A total of 1.9 mL of reagent was added to 0.1 mL of suitably diluted sample or solvent. The absorbance values were measured using the UV-VIS spectrophotometer at 593 nm and expressed as µmol TE/g compound.

As for `O=C(O)/C=C/c1ccc(O)c(O)c1` [Caffeic acid, reference compound], the “DPPH (% Inhibition)” value in the test “In vitro DPPH test” was 80.15 ± 1.24%. The same compound came in with an FRAP in test [1] of 10125.48 ± 32.87 μmolTE/g.

The record behind these values is publication PMC8869097, “Benzothiazole Derivatives as Multifunctional Antioxidant Agents for Skin Damage: Structure–Activity Relationship of a Scaffold Bearing a Five-Membered Ring System” (Antioxidants, 2022).
